# Test system: mice
# Assay: Neuropharmacological assay (SmartCube), behavioral signature of compound-treated mice
# Type: in vivo
# Settings: i.p. 15 min before behavioral test, most efficacious dose(s) of 3 doses
# Description: Neurosci. […] As reported in Roberds, because psychiatric diseases generally result from disorders of cell-cell communication or circuitry, intact systems are useful in detecting improvement in disease-relevant endpoints. These endpoints are typically behavioral in nature, often requiring human observation and interpretation. To facilitate testing of multiple compounds for behavioral effects relevant to psychiatric disease, PsychoGenics, Inc. (Tarrytown, N.Y., “PGI”) developed SmartCube™, an automated system in which behaviors of compound-treated mice are captured by digital video and analyzed with computer algorithms. […] PGI Analytical Systems uses data from SmartCube™ to compare the behavioral signature of a test compound to a database of behavioral signatures obtained using a large set of diverse reference compounds. (The composition of the database as well as validation of the method is further described in Roberds). In this way, the neuropharmacological effects of a test compound can be predicted by similarity to major classes of compounds, such as antipsychotics, anxiolytics and antidepressants.
# The SmartCube™ system produces an activity signature indicating the probability that the activity of the test compound at the administered dose matches a given class of neuropharmacological agents. (See, e.g., Roberds, FIGS. 2 and 3). The test compound is simultaneously compared against multiple classes of agents; thus, a separate probability is generated for each behavioral effect measured (e.g., anxiolytic activity, analgesic activity, etc.). In Table 4, these probabilities are reported for each behavioral effect measured as follows:
# Provided compounds were dissolved in a mixture of Pharmasolve™ (N-methyl-2-pyrrolidone), polyethylene glycol and propylene glycol, and were injected i.p. 15 min. before the behavioral test. For each compound, injections were administered at 3 different doses. For each behavioral effect measured, results for the most efficacious dose(s) are presented.
SMILES,AD: ADHD (probability that behavioral signature matches class),AG: analgesic (probability that behavioral signature matches class),AX: anxiolytic (probability that behavioral signature matches class),CE: cognitive enhancer (probability that behavioral signature matches class),DP: anti-depressant (probability that behavioral signature matches class),HA: hallucinogen (probability that behavioral signature matches class),MS: mood stabilizer (probability that behavioral signature matches class),PS: anti-psychotic (probability that behavioral signature matches class),SD: sedative hypnotic (probability that behavioral signature matches class),UN: uncharacterized CNS activity (probability that behavioral signature matches class)
"c1ccc2c(c1)CCO[C@H]2[C@H]1CCN1 [Compound I-82, (R)-2-((R)-isochroman-1-yl)azetidine]",+ (LOQ ≤ + <5%),++ (5% ≤ ++ <25%),++ (5% ≤ ++ <25%),++ (5% ≤ ++ <25%),+++ (25% ≤ +++ <50%),+ (LOQ ≤ + <5%),++ (5% ≤ ++ <25%),++ (5% ≤ ++ <25%),++ (5% ≤ ++ <25%),++ (5% ≤ ++ <25%)
"c1ccc2c(c1)CCO[C@@H]2[C@H]1CCN1 [Compound I-81, (R)-2-((S)-isochroman-1-yl)azetidine]",+ (LOQ ≤ + <5%),++ (5% ≤ ++ <25%),+++ (25% ≤ +++ <50%),++ (5% ≤ ++ <25%),++ (5% ≤ ++ <25%),+ (LOQ ≤ + <5%),+ (LOQ ≤ + <5%),++ (5% ≤ ++ <25%),+++ (25% ≤ +++ <50%),+ (LOQ ≤ + <5%)
"Fc1ccc2c(c1)[C@H]([C@H]1CCCN1)OCCC2 [Compound I-109, (R)-2-((R)-8-fluoro-1,3,4,5-tetrahydrobenzo[c]oxepin-1-yl)pyrrolidine]",+ (LOQ ≤ + <5%),++ (5% ≤ ++ <25%),++ (5% ≤ ++ <25%),+ (LOQ ≤ + <5%),+++ (25% ≤ +++ <50%),+ (LOQ ≤ + <5%),++ (5% ≤ ++ <25%),++ (5% ≤ ++ <25%),++ (5% ≤ ++ <25%),++ (5% ≤ ++ <25%)
"N#Cc1ccc2c(c1)CCO[C@@H]2[C@H]1CCCN1 [Compound I-46, (S)-1-((R)-pyrrolidin-2-yl)isochroman-6-carbonitrile]",+ (LOQ ≤ + <5%),++ (5% ≤ ++ <25%),++ (5% ≤ ++ <25%),++ (5% ≤ ++ <25%),++ (5% ≤ ++ <25%),+ (LOQ ≤ + <5%),+ (LOQ ≤ + <5%),++++ (50% ≤ ++++),++ (5% ≤ ++ <25%),+ (LOQ ≤ + <5%)
"COc1cccc2c1[C@@H]([C@H]1CCCN1)OCC2 [Compound I-50, (R)-2-((S)-8-methoxyisochroman-1-yl)pyrrolidine]",+ (LOQ ≤ + <5%),++ (5% ≤ ++ <25%),+++ (25% ≤ +++ <50%),++ (5% ≤ ++ <25%),++ (5% ≤ ++ <25%),+ (LOQ ≤ + <5%),+ (LOQ ≤ + <5%),++ (5% ≤ ++ <25%),+ (LOQ ≤ + <5%),+++ (25% ≤ +++ <50%)
"Fc1ccc2c(c1)CCCO[C@H]2[C@@H]1CCCN1 [Compound I-111, (S)-2-((R)-7-fluoro-1,3,4,5-tetrahydrobenzo[c]oxepin-1-yl)pyrrolidine]",+ (LOQ ≤ + <5%),++ (5% ≤ ++ <25%),++ (5% ≤ ++ <25%),++ (5% ≤ ++ <25%),++ (5% ≤ ++ <25%),+ (LOQ ≤ + <5%),+ (LOQ ≤ + <5%),++++ (50% ≤ ++++),++ (5% ≤ ++ <25%),+++ (25% ≤ +++ <50%)
"Fc1ccc2c(c1)CO[C@@H]2[C@@H]1CCCN1 [Compound I-118, (S)-2-((S)-5-fluoro-1,3-dihydroisobenzofuran-1-yl)pyrrolidine]",+ (LOQ ≤ + <5%),++ (5% ≤ ++ <25%),+++ (25% ≤ +++ <50%),++ (5% ≤ ++ <25%),++ (5% ≤ ++ <25%),+ (LOQ ≤ + <5%),++ (5% ≤ ++ <25%),+++ (25% ≤ +++ <50%),++ (5% ≤ ++ <25%),+ (LOQ ≤ + <5%)
"CC1(C)Cc2ccccc2[C@@H]([C@@H]2CCCN2)O1 [Compound I-65, (S)-2-((S)-3,3-dimethylisochroman-1-yl)pyrrolidine]",+ (LOQ ≤ + <5%),+++ (25% ≤ +++ <50%),++ (5% ≤ ++ <25%),++ (5% ≤ ++ <25%),++ (5% ≤ ++ <25%),+ (LOQ ≤ + <5%),+ (LOQ ≤ + <5%),++ (5% ≤ ++ <25%),++ (5% ≤ ++ <25%),+ (LOQ ≤ + <5%)

# Same assay, conditions: i.p. 15 min before behavioral test, most efficacious dose(s) of 3 doses
row,SMILES,XG: anxiogenic (probability that behavioral signature matches class)
1,"c1ccc2c(c1)CCO[C@H]2[C@H]1CCN1 [Compound I-82, (R)-2-((R)-isochroman-1-yl)azetidine]",+ (LOQ ≤ + <5%)
2,"c1ccc2c(c1)CCO[C@@H]2[C@H]1CCN1 [Compound I-81, (R)-2-((S)-isochroman-1-yl)azetidine]",+ (LOQ ≤ + <5%)
3,"Fc1ccc2c(c1)[C@H]([C@H]1CCCN1)OCCC2 [Compound I-109, (R)-2-((R)-8-fluoro-1,3,4,5-tetrahydrobenzo[c]oxepin-1-yl)pyrrolidine]",+ (LOQ ≤ + <5%)
4,"N#Cc1ccc2c(c1)CCO[C@@H]2[C@H]1CCCN1 [Compound I-46, (S)-1-((R)-pyrrolidin-2-yl)isochroman-6-carbonitrile]",+ (LOQ ≤ + <5%)
5,"COc1cccc2c1[C@@H]([C@H]1CCCN1)OCC2 [Compound I-50, (R)-2-((S)-8-methoxyisochroman-1-yl)pyrrolidine]",+ (LOQ ≤ + <5%)
6,"Fc1ccc2c(c1)CCCO[C@H]2[C@@H]1CCCN1 [Compound I-111, (S)-2-((R)-7-fluoro-1,3,4,5-tetrahydrobenzo[c]oxepin-1-yl)pyrrolidine]",+ (LOQ ≤ + <5%)
7,"Fc1ccc2c(c1)CO[C@@H]2[C@@H]1CCCN1 [Compound I-118, (S)-2-((S)-5-fluoro-1,3-dihydroisobenzofuran-1-yl)pyrrolidine]",+ (LOQ ≤ + <5%)
8,"CC1(C)Cc2ccccc2[C@@H]([C@@H]2CCCN2)O1 [Compound I-65, (S)-2-((S)-3,3-dimethylisochroman-1-yl)pyrrolidine]",+ (LOQ ≤ + <5%)

# Reference: patent US10336732B2, “1-heterocyclyl isochromanyl compounds and analogs for treating CNS disorders” (Sunovion Pharmaceuticals Inc., priority 2015, dated 2019)
